Results taken from patent US9006181B2 (The Administrators of the Tulane Educational Fund, priority 2004, dated 2015).
Where “and” joins values, the source holds several entries; their conditions need not be identical. Identical values can stand only once. Entries after “also recorded” stand apart in the source; their conditions may differ. Where no end group is shown, it is not given here.

What was measured:
[1] = tested on: IL-6 production by human proximal tubule cells; assay: LC-induced IL6 production by renal tubule cells, ELISA; type: cell-based; conditions: for magnitude of IL6 suppression compared with dexamethasone and SB202190: 10^−9 M PACAP vs 10^−9 M dexamethasone or 10 μM SB202190
Experimental: The overproduction of IL6 by neoplastic cells is strongly associated with the growth of multiple myeloma. Kawano M, et al. Nature. 332: 83 (1988). Varying doses of PACAP38, dexamethasone, or p38 MAPK kinase inhibitor (SB202190) were added to renal tubule cell cultures along with 50 μM LC to determine the effects on LC-induced IL6 production, as measured by ELISA (FIG. 11).

[2] = molecular target: T1, PAC1-R (type I PACAP receptor) (Homo sapiens, UniProt P41586); conditions: cited from earlier work
T1 sequence (P41586 21-468): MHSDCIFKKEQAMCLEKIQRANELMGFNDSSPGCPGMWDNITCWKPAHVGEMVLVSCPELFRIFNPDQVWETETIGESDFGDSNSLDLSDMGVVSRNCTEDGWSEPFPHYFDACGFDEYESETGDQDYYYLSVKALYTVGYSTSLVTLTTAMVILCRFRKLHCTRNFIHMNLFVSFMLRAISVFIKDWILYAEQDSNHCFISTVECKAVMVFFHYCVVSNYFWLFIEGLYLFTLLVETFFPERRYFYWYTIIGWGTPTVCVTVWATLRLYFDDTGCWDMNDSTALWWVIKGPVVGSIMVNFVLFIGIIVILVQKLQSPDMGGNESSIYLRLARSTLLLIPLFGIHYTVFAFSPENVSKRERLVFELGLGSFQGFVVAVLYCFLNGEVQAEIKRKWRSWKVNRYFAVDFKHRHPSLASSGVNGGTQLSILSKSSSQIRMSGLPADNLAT

[3] = tested on: NCI-H929 human myeloma cell line; assay: Myeloma cell growth, colorimetric BrdU incorporation; type: cell-based
Experimental: A human myeloma cell line (NCI-H929), which produced the lambda (λ) light chains used supra, were grown for 3 days in media containing non-inactivated media, and in the presence or absence of dexamethasone or PACAP38 (FIG. 8). Cell growth was determined by a colorimetric assay that measured the degree of 5-bromo-2-deoxyuridine (BrdU) incorporation by the cells. […] The therapeutic actions of dexamethasone in the treatment of multiple myeloma are attributed to stimulation of apoptosis.

[4] = tested on: SV40-immortalized human renal proximal tubule cell cultures; assay: Immunoglobulin light chain (LC)-induced damage of human renal tubule cells: morphology and survival
Experimental: SV40-immortalized human renal proximal tubule cell cultures were incubated with immunoglobulin light chains (LC) at 50 μM for 3 days (FIG. 2).

[5] = tested on: TNF-α production by human proximal tubule cells; assay: LC-induced TNF-α production by renal tubule cells, ELISA; type: cell-based
Experimental: TNF-α concentrations were determined by ELISA.
Varying doses of dexamethasone, PACAP38, MAPK kinase inhibitor (U0126), or PDTC were added to renal tubule cell cultures along with 50 μM LC to determine the effects on LC-induced TNF-α production, as measured by ELISA (FIG. 4).

[6] = tested on: ERK1/2 in human proximal tubule cells; assay: LC-induced activation of ERK1/2, phospho-ERK1/2 ELISA; type: cell-based; conditions: dexamethasone 10^−7 M, PACAP38 10^−9 M; 50 μM LC, 3 days
Experimental: The ERK-type MAP kinases (ERK1 and ERK2 or, collectively, ERK1/2) are activated by phosphorylation. Evidence of such activation is visualized by antibody detection techniques, using antibody specific for the phosphorylated forms of ERK1/2. […] ERK1/2 activation was determined by ELISA.

[7] = tested on: NFκB p50 subunit in human proximal tubule cells; assay: LC-induced activation of NFκB p50 subunit, ELISA; type: cell-based; conditions: dexamethasone 10^−7 M, PACAP38 10^−9 M; 50 μM LC, 3 days
Experimental: Human renal tubule cells in vitro were incubated with 50 μM LC for 3 days in the presence or absence of dexamethasone or PACAP38, and assayed by ELISA for activation of NFκB subunits (FIGS. 6 & 7). […] A human Raji cell line (B lymphocyte, Burkitt's lymphoma) was used for positive controls.

[8] = tested on: p38 MAPK in human proximal tubule cells; assay: LC-induced p38 MAPK activation, ELISA for phosphorylated p38 MAPK; type: cell-based
Text: Cytokine production may depend upon activation (phosphorylation) of p38 MAP kinase (stress-activated protein kinase 2a) isoforms.

For “PACAP: pituitary adenylate cyclase activating polypeptide; exists as PACAP38 and PACAP27; in Example 8 stands for PACAP38”, the “magnitude of IL6 suppression compared with dexamethasone and SB202190” value [1] was “greater than that observed with either 10^−9 M dexamethasone or 10 μM SB202190”.

In the case of vasoactive intestinal peptide [VIP], the “binding to PAC1-R” value [2] is listed as “does not bind”.

In the case of “PACAP[1-38]-NH2 (HSDGIFTDSYSRYRKQMAVKKYLAAVLGKRYKQRVKNK-NH2) [PACAP38]”, the “magnitude of IL6 suppression compared with dexamethasone and SB202190” value [1] is reported as “significantly more effective at suppressing IL-6 production than dexamethasone”, the “suppression of LC-stimulated IL6 production” value ([1]; varying doses, 50 μM LC) is reported as “significant suppression; also recorded: suppressed by both dexamethasone and PACAP38 in a dose-dependent manner” and the “concentration of maximal suppression of tumor cell growth” value ([3]; 3 days) is reported as 10^−7 M. The “lowest concentration at which tumor cell growth tended to be suppressed” value ([3]; 3 days) was 10^−13 M, the “suppression of myeloma cell growth” value ([3]; 3 days, media with non-inactivated serum) was “suppressed growth of myeloma cells in cultures with approximately the same efficacy; also recorded: suppressed cell growth significantly; also recorded: dose-dependent suppression of myeloma cell growth at concentrations significantly lower than dexamethasone” and the “growth suppressed at levels as low as” value ([3]; media containing non-inactivated serum) was 10^−11 M. For the same compound, the “effect on LC-induced cell damage (FIG. 2C)” value ([4]; PACAP38 10 nM, LC 50 μM, 3 days) was “dramatically attenuated”, the “effect on LC-induced morphological changes (cell shrinkage, necrosis, loss of cell-cell adhesion) and survival” value ([4]; PACAP38 10^−9 M, LC 50 μM, 3 days) was “prevented the LC-induced changes; also recorded: dramatic preservation of renal tubule cell survival and morphology” and the “cell morphology with compound alone” value ([4]; PACAP38 alone, 10^−9 M, no LC) was “did not cause any alteration of cell morphology; also recorded: did not alter the human renal tubule cell morphology”. For the same compound, the “concentration achieving maximal suppression of TNF-α production” value ([5]; 50 μM LC) was 10^−9 M and 10^−7 M, the “concentration giving comparable magnitude of TNF-α suppression (dexamethasone vs PACAP38)” value ([5]; 50 μM LC) was 10^−13 M and the “concentrations showing comparable activity in suppressing LC-induced TNF-α production (pair used in FIGS. 5-7)” value ([5]; 50 μM LC) was 10^−9 M. The “suppression of LC-induced TNF-α production at a single concentration” value ([5]; PACAP38 10^−9 M) was “dramatic suppression”, the “suppression of LC-induced TNF-α production” value ([5]; varying doses, 50 μM LC, 72 hours) was “suppressed by both dexamethasone and PACAP38 in a dose-dependent manner” and the “suppression of LC-induced ERK1/2 activation” value [6] was “Neither dexamethasone nor PACAP38 suppressed ERK1/2 MAPK activation; also recorded: the difference was not statistically significant; also recorded: neither dexamethasone nor PACAP38 suppressed light chain-induced ERK1/2 activation significantly”. The “suppression of LC-induced NFκB p50 subunit activation” value [7] was “significantly suppressed NFκB p50 activation; also recorded: suppressed by both dexamethasone and PACAP38”, the “reduction of p38 MAPK activation compared with SB202190 and dexamethasone” value ([8]; 10 nM PACAP38 vs 10 μM SB202190) was “comparable to reduction produced by 10 μM SB202190; also recorded: comparable to that of the specific p38 MAPK inhibitor itself; also recorded: significantly more effective at comparable doses” and the “reduction of LC-induced p38 MAPK activation” value ([8]; varying doses, 50 μM LC, 3 days) was “suppressed activation of p38 MAPK; also recorded: reduced significantly, and in a dose-dependent manner; also recorded: suppressed p38 MAPK activation in a dose-dependent manner”.

For `S=C(S)N1CCCC1` [PDTC, pyrrolidine dithiocarbamate, reference compound], the “suppression of LC-induced TNF-α production” value ([5]; PDTC 0.125 μM and 12.5 μM, both levels) was “completely suppressed”.

For `N#CC(=C(/N)Sc1ccccc1N)/C(C#N)=C(\N)Sc1ccccc1N` [U0126, reference compound], the “suppression of LC-induced TNF-α production” value ([5]; U0126 high dose) was “completely suppressed”.

With `Oc1ccc(-c2nc(-c3ccncc3)c(-c3ccc(F)cc3)[nH]2)cc1` [SB202190, reference compound] the “reduction of p38 MAPK activation” value ([8]; SB202190 10 μM) was “reduction produced by 10 μM SB202190”.

For `C[C@@H]1C[C@H]2[C@@H]3CCC4=CC(=O)C=C[C@]4(C)[C@@]3(F)[C@@H](O)C[C@]2(C)[C@@]1(O)C(=O)CO` [dexamethasone, reference compound], the “concentration achieving maximal suppression of TNF-α production” value ([5]; 50 μM LC) was 10^−5 M, the “concentration giving comparable magnitude of TNF-α suppression (dexamethasone vs PACAP38)” value ([5]; 50 μM LC) was 10^−9 M and the “concentrations showing comparable activity in suppressing LC-induced TNF-α production (pair used in FIGS. 5-7)” value ([5]; 50 μM LC) was 10^−7 M.
